Measured values: patent US7524869B2, “Taxanes having a C10 ester substituent” (Florida State University Research Foundation, Inc., priority 2000, dated 2009)

System: HCT116
Experiment: In vitro cytotoxicity measured by the cell colony formation assay
Assay type: cell-based
Conditions: HCT116 cells, 72 h drug incubation, colonies counted after 7 days; ID50 = drug concentration producing 50% inhibition of colony formation; read-out: IN VITRO ID 50 (nm) HCT116

Row | SMILES | IC50 [nM]
1 | CC(=O)O[C@@]12CO[C@@H]1C[C@H](O)[C@@]1(C)C(=O)[C@H](OC(=O)C=C(C)C)C3=C(C)[C@@H](OC(=O)[C@H](O)[C@@H](NC(=O)OC(C)(C)C)c4ccncc4)C[C@@](O)([C@@H](OC(=O)c4ccccc4)C12)C3(C)C (stereo partly shown) [Compound 2472] | < 1
2 | CC(=O)O[C@@]12CO[C@@H]1C[C@H](O)[C@@]1(C)C(=O)[C@H](OC(=O)C=C(C)C)C3=C(C)[C@@H](OC(=O)[C@H](O)[C@@H](NC(=O)OC(C)(C)C)c4ccco4)C[C@@](O)([C@@H](OC(=O)c4ccccc4)C12)C3(C)C (stereo partly shown) [Compound 2488] | < 1
3 | CC(=O)O[C@@]12CO[C@@H]1C[C@H](O)[C@@]1(C)C(=O)[C@H](OC(=O)C=C(C)C)C3=C(C)[C@@H](OC(=O)[C@H](O)[C@@H](NC(=O)OC(C)(C)C)c4ccoc4)C[C@@](O)([C@@H](OC(=O)c4ccccc4)C12)C3(C)C (stereo partly shown) [Compound 2499] | < 1
4 | CC(=O)O[C@@]12CO[C@@H]1C[C@H](O)[C@@]1(C)C(=O)[C@H](OC(=O)C=C(C)C)C3=C(C)[C@@H](OC(=O)[C@H](O)[C@@H](NC(=O)OC(C)(C)C)c4cccs4)C[C@@](O)([C@@H](OC(=O)c4ccccc4)C12)C3(C)C (stereo partly shown) [Compound 2503] | < 1
5 | CC(=O)O[C@@]12CO[C@@H]1C[C@H](O)[C@@]1(C)C(=O)[C@H](OC(=O)C=C(C)C)C3=C(C)[C@@H](OC(=O)[C@H](O)[C@@H](NC(=O)OC(C)(C)C)c4ccsc4)C[C@@](O)([C@@H](OC(=O)c4ccccc4)C12)C3(C)C (stereo partly shown) [Compound 2511] | < 1
6 | CC(=O)O[C@@]12CO[C@@H]1C[C@H](O)[C@@]1(C)C(=O)[C@H](OC(=O)C=C(C)C)C3=C(C)[C@@H](OC(=O)[C@H](O)[C@@H](NC(=O)OC(C)(C)C)c4ccccc4)C[C@@](O)([C@@H](OC(=O)c4ccccc4)C12)C3(C)C (stereo partly shown) [Compound 2520] | < 10
7 | CC(=O)O[C@@]12CO[C@@H]1C[C@H](O)[C@@]1(C)C(=O)[C@H](OC(=O)C3CC3)C3=C(C)[C@@H](OC(=O)[C@H](O)[C@@H](NC(=O)OC(C)(C)C)c4ccoc4)C[C@@](O)([C@@H](OC(=O)c4ccccc4)C12)C3(C)C (stereo partly shown) [Compound 2781] | < 1
8 | CC(=O)O[C@@]12CO[C@@H]1C[C@H](O)[C@@]1(C)C(=O)[C@H](OC(=O)C3CC3)C3=C(C)[C@@H](OC(=O)[C@H](O)[C@@H](NC(=O)OC(C)(C)C)c4ccsc4)C[C@@](O)([C@@H](OC(=O)c4ccccc4)C12)C3(C)C (stereo partly shown) [Compound 2794] | < 1
9 | CC(=O)O[C@@]12CO[C@@H]1C[C@H](O)[C@@]1(C)C(=O)[C@H](OC(=O)C3CC3)C3=C(C)[C@@H](OC(=O)[C@H](O)[C@@H](NC(=O)OC(C)(C)C)c4ccccn4)C[C@@](O)([C@@H](OC(=O)c4ccccc4)C12)C3(C)C (stereo partly shown) [Compound 2802] | < 1
10 | CC(=O)O[C@@]12CO[C@@H]1C[C@H](O)[C@@]1(C)C(=O)[C@H](OC(=O)C3CC3)C3=C(C)[C@@H](OC(=O)[C@H](O)[C@@H](NC(=O)OC(C)(C)C)c4ccncc4)C[C@@](O)([C@@H](OC(=O)c4ccccc4)C12)C3(C)C (stereo partly shown) [Compound 2813] | < 1
11 | CC(=O)O[C@@]12CO[C@@H]1C[C@H](O)[C@@]1(C)C(=O)[C@H](OC(=O)C3CC3)C3=C(C)[C@@H](OC(=O)[C@H](O)[C@@H](NC(=O)c4ccccc4)c4ccoc4)C[C@@](O)([C@@H](OC(=O)c4ccccc4)C12)C3(C)C (stereo partly shown) [Compound 2826] | < 1
12 | CC(=O)O[C@@]12CO[C@@H]1C[C@H](O)[C@@]1(C)C(=O)[C@H](OC(=O)C3CC3)C3=C(C)[C@@H](OC(=O)[C@H](O)[C@@H](NC(=O)c4ccccc4)c4ccsc4)C[C@@](O)([C@@H](OC(=O)c4ccccc4)C12)C3(C)C (stereo partly shown) [Compound 2838] | < 1
13 | CC(=O)O[C@@]12CO[C@@H]1C[C@H](O)[C@@]1(C)C(=O)[C@H](OC(=O)C3CC3)C3=C(C)[C@@H](OC(=O)[C@H](O)[C@@H](NC(=O)c4ccccc4)c4ccccn4)C[C@@](O)([C@@H](OC(=O)c4ccccc4)C12)C3(C)C (stereo partly shown) [Compound 2844] | < 10
